Source: patent publication US20120058997A1, “IMIDAZO[1,2-B]PYRIDAZINE AND PYRAZOLO[1,5-A]PYRIMIDINE DERIVATIVES AND THEIR USE AS PROTEIN KINASE INHIBITORS” (SuperGen, Inc., priority 2006, published 2012)

Biological target: Pim-1 kinase (Homo sapiens, UniProt P11309)
Test: Promega Kinase-Glo Pim-1 kinase inhibition assay;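 further: in vitro Pim-1 reaction run 2 h at 30 °C, then leftover ATP measured by luciferase luminescence, where signal falls as kinase activity rises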
Format: biochemical
Conditions: Table VIII (results); values in nM; read-out: IC50(Kinase)

Pim-1 kinase, sequence (P11309 whole entry): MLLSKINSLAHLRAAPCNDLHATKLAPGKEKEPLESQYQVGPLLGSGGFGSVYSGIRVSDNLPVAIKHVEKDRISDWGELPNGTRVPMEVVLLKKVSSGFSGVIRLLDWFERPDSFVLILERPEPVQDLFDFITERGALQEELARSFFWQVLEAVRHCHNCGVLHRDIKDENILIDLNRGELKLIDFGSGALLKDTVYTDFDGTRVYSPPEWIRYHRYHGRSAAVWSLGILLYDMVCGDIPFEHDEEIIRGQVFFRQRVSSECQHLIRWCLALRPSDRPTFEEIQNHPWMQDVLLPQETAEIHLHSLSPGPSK

| IC50 [nM] | Structure (SMILES) |
| --- | --- |
| 310 | CC(C)N1CCC(CNc2ccc3ncc(-c4cc(OC(F)(F)F)ccc4O)n3n2)CC1 [Compound 7-49, N-((1-isopropylpiperidin-4-yl)methyl)-3-(2-hydroxy-5-(trifluoromethoxy)phenyl)-imidazo[1,2-b]pyridazin-6-amine] |

Same assay, conditions: Table X; Kinase-Glo; read-out: IC50 on Pim1

| Structure (SMILES) | IC50 [nM] |
| --- | --- |
| CC(C)(O)CCNc1ccc2ncc(-c3cccc(OC(F)(F)F)c3)n2n1 [Compound 8-3, 2-Methyl-4-((3-(3-(trifluoromethoxy)phenyl)imidazo[1,2-b]pyridazin-6-yl)amino)butan-2-ol] | 10 to 100 |
| O[C@H]1CC[C@H](Oc2ccc3ncc(-c4cccc(OC(F)(F)F)c4)n3n2)CC1 [Compound 8-4, 4-((3-(3-(Trifluoromethoxy)phenyl)imidazo[1,2-b]pyridazin-6-yl)oxy)-trans-cyclohexanol] | < 10 |
| O[C@@H]1CC[C@@H](Nc2ccc3ncc(-c4cccc(OC(F)(F)F)c4)n3n2)C1 [Compound 8-5, (1R,3R)3-((3-(3-(Trifluoromethoxy)phenyl)imidazo[1,2-b]pyridazin-6-yl)amino)cyclopentanol] | 10 to 100 |
| CC(C)(O)CNc1ccc2ncc(-c3cccc(OC(F)(F)F)c3)n2n1 [Compound 8-6, 2-Methyl-1-((3-(3-(trifluoromethoxy)phenyl)imidazo[1,2-b]pyridazin-6-yl)amino)propan-2-ol] | 10 to 100 |
| O[C@H]1C[C@H](CNc2ccc3ncc(-c4cccc(OC(F)(F)F)c4)n3n2)C1 [Compound 8-7, 3-(((3-(3-(Trifluoromethoxy)phenyl)imidazo[1,2-b]pyridazin-6-yl)amino)methyl)-trans-cyclobutanol] | 10 to 100 |
| N[C@H]1CC[C@H](Nc2ccc3ncc(-c4cccc(OC(F)(F)F)c4)n3n2)CC1 [Compound 8-8, (3-(3-(Trifluoromethoxy)phenyl)imidazo[1,2-b]pyridazin-6-yl)cyclohexane-trans-1,4-diamine] | < 10 |
| C[C@]1(O)CC[C@H](Nc2ccc3ncc(-c4cccc(OC(F)(F)F)c4)n3n2)CC1 [Compound 8-9, 1-Methyl-4-((3-(3-(trifluoromethoxy)phenyl)imidazo[1,2-b]pyridazin-6-yl)amino)-trans-cyclohexanol] | 10 to 100 |
| CC(C)(O)[C@H]1CC[C@H](Nc2ccc3ncc(-c4cccc(OC(F)(F)F)c4)n3n2)CC1 [Compound 8-10] | < 10 |
| O=S1(=O)CCC(CNc2ccc3ncc(-c4cccc(OC(F)(F)F)c4)n3n2)CC1 [Compound 8-13, 4-(((3-(3-(Trifluoromethoxy)phenyl)imidazo[1,2-b]pyridazin-6-yl)amino)methyl)tetrahydro-2H-thiopyran 1,1-dioxide] | 100 to 1000 |
| O=S1(=O)CCC(Nc2ccc3ncc(-c4cccc(OC(F)(F)F)c4)n3n2)CC1 [Compound 8-14, 4-((3-(3-(Trifluoromethoxy)phenyl)imidazo[1,2-b]pyridazin-6-yl)amino)tetrahydro-2H-thiopyran 1,1-dioxide] | 1000 to 5000 |
| O=S1(=O)CCN(c2ccc3ncc(-c4cccc(OC(F)(F)F)c4)n3n2)CC1 [Compound 8-15, 4-(3-(3-(Trifluoromethoxy)phenyl)imidazo[1,2-b]pyridazin-6-yl)thiomorpholine 1,1-dioxide] | 1000 to 5000 |
| CC(C)O[C@H]1CC[C@H](Nc2ccc3ncc(-c4cccc(OC(F)(F)F)c4)n3n2)CC1 [Compound 8-16, 4-(trans-Isopropoxycyclohexyl)-3-(3-(trifluoromethoxy)phenyl)imidazo[1,2-b]pyridazin-6-amine] | 100 to 1000 |
| FC1(F)CCC(CNc2ccc3ncc(-c4cccc(OC(F)(F)F)c4)n3n2)CC1 [Compound 8-17, N-((4,4-difluorocyclohexyl)methyl)-3-(3-(trifluoromethoxy)phenyl)imidazo[1,2-b]pyridazin-6-amine] | 1000 to 5000 |
| FC(F)(F)Oc1cccc(-c2cnc3ccc(NCC4CCSCC4)nn23)c1 [Compound 8-18, N-((tetrahydro-2H-thiopyran-4-yl)methyl)-3-(3-(trifluoromethoxy)phenyl)imidazo[1,2-b]pyridazin-6-amine] | 1000 to 5000 |
| FC(F)(F)Oc1cccc(-c2cnc3ccc(NCC4CCOCC4)nn23)c1 [Compound 8-19, N-((tetrahydro-2H-pyran-4-yl)methyl)-3-(3-(trifluoromethoxy)phenyl)imidazo[1,2-b]pyridazin-6-amine] | 10 to 100 |
| CC(C)(O)C(=O)N1CCC(CNc2ccc3ncc(-c4cccc(OC(F)(F)F)c4)n3n2)CC1 [Compound 8-20, 2-Hydroxy-2-methyl-1-(4-(((3-(3-(trifluoromethoxy)phenyl)imidazo[1,2-b]pyridazin-6-yl)amino)methyl)piperidin-1-yl)propan-1-one] | 10 to 100 |
| O=C(CN1CCOCC1)N1CCC(CNc2ccc3ncc(-c4cccc(OC(F)(F)F)c4)n3n2)CC1 [Compound 8-21, 2-Morpholino-1-(4-(((3-(3-(trifluoromethoxy)phenyl)imidazo[1,2-b]pyridazin-6-yl)amino)methyl)piperidin-1-yl)ethanone] | 10 to 100 |
| O=C1CC(CNc2ccc3ncc(-c4cccc(OC(F)(F)F)c4)n3n2)CCN1 (stereo not shown) [Compound 8-23, 4-(((3-(3-(Trifluoromethoxy)phenyl)imidazo[1,2-b]pyridazin-6-yl)amino)methyl)piperidin-2-one] | 1000 to 5000 |
| NCC1CCN(c2ccc3ncc(-c4cccc(OC(F)(F)F)c4)n3n2)C(=O)C1 (stereo not shown) [Compound 8-24, 4-(Aminomethyl)-1-(3-(3-(trifluoromethoxy)phenyl)imidazo[1,2-b]pyridazin-6-yl)piperidin-2-one] | 10 to 100 |

Next, values leading:

| IC50 [nM] | Structure (SMILES) |
| --- | --- |
| 10 to 100 | N[C@H]1CCCN(c2ccc3ncc(-c4cccc(OC(F)(F)F)c4)n3n2)C1 [Compound 8-25, (S)-1-(3-(3-(Trifluoromethoxy)phenyl)imidazo[1,2-b]pyridazin-6-yl)piperidin-3-amine] |
| 10 to 100 | OCCN1CCC(CNc2ccc3ncc(-c4cccc(OC(F)(F)F)c4)n3n2)CC1 [Compound 8-27, 2-(4-(((3-(3-(Trifluoromethoxy)phenyl)imidazo[1,2-b]pyridazin-6-yl)amino)methyl)piperidin-1-yl)ethanol] |
| 10 to 100 | C[C@]1(O)CC[C@H](Nc2ccc3ncc(-c4cccc(C(F)(F)F)c4)n3n2)CC1 [Compound 8-30, 1-Methyl-4-((3-(3-(trifluoromethyl)phenyl)imidazo[1,2-b]pyridazin-6-yl)amino)-trans-cyclohexanol] |
| < 10 | CC(C)(O)[C@H]1CC[C@H](Nc2ccc3ncc(-c4cccc(C(F)(F)F)c4)n3n2)CC1 [Compound 8-31] |
| 100 to 1000 | CO[C@H]1CC[C@H](Nc2ccc3ncc(-c4cccc(C(F)(F)F)c4)n3n2)CC1 [Compound 8-32, 4-(trans-Methoxycyclohexyl)-3-(3-(trifluoromethyl)phenyl)imidazo[1,2-b]pyridazin-6-amine] |
| 10 to 100 | FC(F)(F)c1cccc(-c2cnc3ccc(NC4CCOCC4)nn23)c1 [Compound 8-33, N-(Tetrahydro-2H-pyran-4-yl)-3-(3-(trifluoromethyl)phenyl)imidazo[1,2-b]pyridazin-6-amine] |
| 100 to 1000 | O=S1(=O)CCC(CNc2ccc3ncc(-c4cccc(C(F)(F)F)c4)n3n2)CC1 [Compound 8-34, 4-(((3-(3-(Trifluoromethyl)phenyl)imidazo[1,2-b]pyridazin-6-yl)amino)methyl)tetrahydro-2H-thiopyran 1,1-dioxide] |
| 100 to 1000 | C[C@]1(O)CC[C@H](Nc2ccc3ncc(-c4cccc(Cl)c4)n3n2)CC1 [Compound 8-36, 4-((3-(3-Chlorophenyl)imidazo[1,2-b]pyridazin-6-yl)amino)-1-methyl-trans-cyclohexanol] |
| < 10 | CC(C)(O)[C@H]1CC[C@H](Nc2ccc3ncc(-c4cccc(Cl)c4)n3n2)CC1 [Compound 8-37] |
| 10 to 100 | CO[C@H]1CC[C@H](Nc2ccc3ncc(-c4cccc(Cl)c4)n3n2)CC1 [Compound 8-38, 3-(3-Chlorophenyl)-N-(4-trans-methoxycyclohexyl)imidazo[1,2-b]pyridazin-6-amine] |
| < 10 | Clc1cccc(-c2cnc3ccc(NC4CCOCC4)nn23)c1 [Compound 8-39] |
| 100 to 1000 | O=S1(=O)CCC(CNc2ccc3ncc(-c4cccc(Cl)c4)n3n2)CC1 [Compound 8-40, 4-(((3-(3-Chlorophenyl)imidazo[1,2-b]pyridazin-6-yl)amino)methyl)tetrahydro-2H-thiopyran 1,1-dioxide] |
| 100 to 1000 | CC(C)(O)CCOc1ccc2ncc(-c3cccc(OC(F)(F)F)c3)n2n1 [Compound 8-41, 2-Methyl-4-((3-(3-(Trifluoromethoxy)phenyl)imidazo[1,2-b]pyridazin-6-yl)oxy)butan-2-ol] |
| 1000 to 5000 | COCCOc1ccc2ncc(-c3cccc(OC(F)(F)F)c3)n2n1 [Compound 8-42, 6-(2-Methoxyethoxy)-3-(3-(trifluoromethoxy)phenyl)imidazo[1,2-b]pyridazine] |
| 100 to 1000 | COc1ccc(CNc2ccc3ncc(-c4cccc(OC(F)(F)F)c4)n3n2)cc1 [Compound 8-43, N-(4-Methoxybenzyl)-3-(3-(trifluoromethoxy)phenyl)imidazo[1,2-b]pyridazin-6-amine] |
| 10 to 100 | FC(F)(F)Oc1cccc(-c2cnc3ccc(NCCN4CCOCC4)nn23)c1 [Compound 8-44, N-(2-morpholinoethyl)-3-(3-(trifluoromethoxy)phenyl)imidazo[1,2-b]pyridazin-6-amine] |
| 10 to 100 | CN(C)CC(=O)N1CCC(CNc2ccc3ncc(-c4cccc(OC(F)(F)F)c4)n3n2)CC1 [Compound 8-45, 2-(dimethylamino)-1-(4-(((3-(3-(trifluoromethoxy)phenyl)imidazo[1,2-b]pyridazin-6-yl)amino)methyl)piperidin-1-yl)ethanone] |
| 100 to 1000 | CC(C)(O)[C@H]1CC[C@H](Nc2ccn3ncc(-c4cccc(OC(F)(F)F)c4)c3n2)CC1 [Compound 8-47] |
| 100 to 1000 | C[C@]1(O)CC[C@H](Nc2ccn3ncc(-c4cccc(OC(F)(F)F)c4)c3n2)CC1 [Compound 8-48, 1-Methyl-4-((3-(3-(trifluoromethoxy)phenyl)pyrazolo[1,5-a]pyrimidin-5-yl)amino)-trans-cyclohexanol] |
| 100 to 1000 | CO[C@H]1CC[C@H](Nc2ccn3ncc(-c4cccc(OC(F)(F)F)c4)c3n2)CC1 [Compound 8-49, 4-(trans-Methoxycyclohexyl)-3-(3-(trifluoromethoxy)phenyl)pyrazolo[1,5-a]pyrimidin-5-amine] |
